Data from patent publication US20150273057A1, “Combination” (GLAXOSMITHKLINE LLC, priority 2012, published 2015).

How the values were obtained:
Assay in all cases: Cell growth inhibition assay (Cell Titer Glo, 7 days)
Assay type in all cases: cell-based, Human
A375 = A375 melanoma line, relative to vehicle (DMSO)
Method: (§1) Human colon tumor lines, Colo-205, HT-29, RKO, SW1417, LS411N and human melanoma line A375 were from ATCC. All lines were cultured in RPMI 1640 medium containing 10% fetal bovine serum (FBS).
(§2) All cells were cultured for a minimum of 72 hours prior to cell plating. Cells were assayed in a 96-well tissue culture plate (NUNC 136102) of RPMI medium containing 10% FBS for all cells at 500 cells per well. […] ATP levels were determined by adding Cell Titer Glo® (Promega) according to the manufacturer's protocol. Briefly, Cell Titer Glo0 was added to each plate, incubated for 30 minutes then luminescent signal was read on the SpectraMax L plate reader with a 0.5 sec integration time.
(§3) Inhibition of cell growth was estimated after treatment with compound or combination of compounds for 7 days and comparing the signal to cells treated with vehicle (DMSO). Cell growth was calculated relative to vehicle (DMSO) treated control wells.

Colo-205 = Colo-205 BRAF V600E mutant CRC line, relative to vehicle (DMSO)
Method: as §1, §2, §3

LS411N = LS411N BRAF V600E mutant CRC line, relative to vehicle (DMSO)
Method: as §1, §2, §3

RKO = RKO BRAF V600E mutant CRC line, relative to vehicle (DMSO)
Method: as §1, §2, §3

SW1417 = SW1417 BRAF V600E mutant CRC line, relative to vehicle (DMSO)
Method: as §1, §2, §3

HT-29 = HT-29 BRAF V600E mutant CRC line, relative to vehicle (DMSO)
Method: as §1, §2, §3

SMILES | cell growth inhibition, agent alone (A375) | cell growth inhibition, agent alone (Colo-205) | cell growth inhibition, agent alone (LS411N) | cell growth inhibition, agent alone (RKO) | cell growth inhibition, agent alone (SW1417) | cell growth inhibition, agent alone (HT-29)
C#Cc1cccc(Nc2ncnc3cc(OCCOC)c(OCCOC)cc23)c1 [erlotinib, reference compound] | inactive | inactive | inactive | inactive | inactive | inactive
CC(C)(C)c1nc(-c2cccc(NS(=O)(=O)c3c(F)cccc3F)c2F)c(-c2ccnc(N)n2)s1 [Compound B, N-{3-[5-(2-Amino-4-pyrimidinyl)-2-(1,1-dimethylethyl)-1,3-thiazol-4-yl]-2-fluorophenyl}-2,6-difluorobenzenesulfonamide] | sensitive | sensitive | sensitive | resistant | resistant | sensitive
CC(=O)Nc1cccc(-n2c(=O)n(C3CC3)c(=O)c3c(Nc4ccc(I)cc4F)n(C)c(=O)c(C)c32)c1 [Compound A, N-{3-[3-cyclopropyl-5-(2-fluoro-4-iodo-phenylamino)6,8-dimethyl-2,4,7-trioxo-3,4,6,7-tetrahydro-2H-pyrido[4,3-d]pyrimidin-1-yl]phenyl}acetamide] | sensitive | sensitive | sensitive | resistant | resistant | sensitive
